{
  "source": "patent US20230279346A1",
  "about": "“METHODS OF DIFFERENTIATION TO NEURONAL CELLS AND KITS THEREFOR” (priority 2016, published 2023)",
  "key": {"H9 ESC-derived NSCs [1]": {"test_system": "H9 ESC-derived NSCs", "assay": "Immunofluorescent image analysis: cells positive for HuC/D and negative for SOX1", "format": "cell-based, human", "excerpt": "(§3) Cells cultured in differentiation medium without the presence of the gamma-secretase inhibitor served as a control. In the test groups, cells were separately differentiated in the presence of Compound E at 0.2 micromolar, YO-01027 at concentrations of 0.3 micromolar, 1.5 micromolar and 7.5 micromolar, LY411575 at concentrations of 0.01 micromolar, 0.05 micromolar, 0.25 micromolar, 0.5 micromolar, 1.0 micromolar and 2.0 micromolar, and MK-0752 at concentrations of 0.8 micromolar, 4 micromolar, 20 micromolar, 40 micromolar and at 80 micromolar. Eight wells were tested for each concentration of each inhibitor."}, "H9 ESC-derived NSCs [2]": {"test_system": "H9 ESC-derived NSCs", "assay": "Cell clump area after neuronal differentiation (INCUCYTE ZOOM System)", "format": "cell-based, human", "conditions": "for cell clumping vs control group (cell clump area, FIG. 6): two weeks, Compound E 0.2, YO-01027 0.3, LY411575 0.25, MK-0752 20 micromolar, p<0.01", "description": "Also, at the end of that two week period of differentiation, the area of cell clumps was calculated using the [sequence] ZOOM™ System (Essen BioScience, Ann Arbor Mich.) by defining the area of cell mass ≥10,000 μm^2 as a cell clump.\nas §3\nAt the end of a two week period of differentiation, the area of cell clumps was calculated for each test well using the [sequence] ZOOM™ System (Essen BioScience, Ann Arbor Mich.) by defining the area of cell mass ≥10,000 μm2 as a cell clump and the data plotted in FIG. 6."}, "H9 ESC-derived NSCs [3]": {"test_system": "H9 ESC-derived NSCs", "assay": "Cell toxicity during differentiation of NSCs", "format": "cell-based, human", "conditions": "160 micromolar", "excerpt": "as §3\nAt the end of a two week period of differentiation, the area of cell clumps was calculated for each test well using the [sequence]"}, "[4]": {"test_system": "primary rat cortical neuronal cells", "assay": "Differentiation of primary rat cortical neuronal cells, GFAP and HuC&D staining", "format": "cell-based", "conditions": "two weeks of differentiation", "from_the_text": "Cryopreserved primary rat cortical neuronal cells (Cat. No. A1084001, Thermo Fisher Scientific, Waltham Mass.), which had been isolated from rodent embryonic brain, were thawed and plated on poly-D-lysine 96-well plates (Cat. No. 08-774-255, Thermo Fisher Scientific, Waltham Mass.) coated with laminin (Cat. No. 23017, Thermo Fisher Scientific, Waltham Mass.) at a density of 8×10^4 cells/cm2. The culture medium was neuronal differentiation medium containing NEUROBASAL™ Medium (Cat. No. 21103, Thermo Fisher Scientific, Waltham Mass.), 2% B27 Supplement (Cat. No. 17504, Thermo Fisher Scientific, Waltham Mass.), 1% GLUTAMAX™ Supplement (Cat. No. 35050, Thermo Fisher Scientific, Waltham Mass.) without or with gamma secretase inhibitor Compound E. Every 2-3 days, half spent medium was removed from each well of the culture plates and the same volume of fresh medium was added into each well. At two weeks of differentiation, cells were fixed with 4% paraformaldehyde and stained with antibodies against neuronal marker HuC&D and astroglial marker glial fibrillary acidic protein (GFAP)."}, "H9 ESC-derived NSCs [5]": {"test_system": "H9 ESC-derived NSCs", "assay": "Caspase 9 staining for apoptotic cell death", "format": "cell-based, human", "conditions": "six days of differentiation; 0.2 micromolar", "experimental": "(§1) Differentiation of H9 ESC-derived NSCs was the same as for Example 2. At Day 6 of differentiation, cells were incubated with the nucleoside thymidine analog EdU for 24 h. EdU is incorporated into DNA during active DNA synthesis with the result that proliferating cells become labeled. EdU positive cells were detected using the CLICK-IT™ EdU Alexa FLUOR™ 488 HCS Assay (Cat. No. C10350, Thermo Fisher Scientific, Waltham Mass.) according to the manufacturer's protocols. Cells were then fixed with 4% paraformaldehyde and stained with antibodies against the apoptotic cell death marker caspase 9 (polyclonal, Cat. No. PA5-16358, Thermo Fisher Scientific, Waltham Mass.) according to the manufacturer's protocol."}, "H9 ESC-derived NSCs [6]": {"test_system": "H9 ESC-derived NSCs", "assay": "EdU incorporation proliferation assay (CLICK-IT EdU)", "format": "cell-based, human", "conditions": "Day 6 of differentiation, EdU 24 h; 0.2 micromolar", "experimental": "as §1"}, "NSC cultures": {"test_system": "NSC cultures", "assay": "CYQUANT Direct Cell Proliferation Assay", "format": "cell-based", "experimental": "The proliferation and electrophysiology of cells resulting from differentiation in the presence of Compound E were compared to NSC control cultures. NSC cultures were plated at 20,000 cells per well on Day 0.\nThe CYQUANT™ Direct Cell Proliferation Assay (Molecular Probes Cat. No. C35011, Eugene Oreg.) was used to provide quantitation of proliferation at Day 4 and Day 7 of culture."}, "H9 ESC-derived NSCs [7]": {"test_system": "H9 ESC-derived NSCs", "assay": "Long-term maintenance of differentiated neuronal cells", "format": "cell-based, human", "conditions": "0.2 micromolar; without inhibitor cells detached at three weeks", "from_the_text": "(§2) To differentiate the NSCs into neuronal cells, cryo-preserved H9 ESC-derived NSCs were thawed and plated on poly-D-lysine 96-well plates (Cat. No. 08-774-255, Thermo Fisher Scientific, Waltham Mass.) coated with laminin (Cat. No. 23017, Thermo Fisher Scientific, Waltham Mass.) at a density of 5×10^4 cells/cm2. The cultures were maintained in the neuronal differentiation medium containing NEUROBASAL™ Medium (Cat. No. 21103, Thermo Fisher Scientific, Waltham Mass.), 2% B27 Supplement (Cat. No. 17504, Thermo Fisher Scientific, Waltham Mass.), 1% GLUTAMAX™ Supplement (Cat. No. 35050, Thermo Fisher Scientific, Waltham Mass.) and 200 micromolar ascorbic acid (Cat. No. A8960, Sigma-Aldrich, St. Louis Mo.) with or without the gamma-secretase inhibitor Compound E (0.2 micromolar, Cat. No. 565790, EMD Millipore, Billerica Mass.). Every 2-3 days, half spent medium was removed from each well of the culture plates and the same volume of fresh medium was added into each well.\nFor this study, the differentiation of H9 ESC-derived NSCs was the same as for Example 2. Without presence of the gamma secretase inhibitor during differentiation, neuronal cells detached from the culture plate at three weeks after differentiation as shown by the image of FIG. 7A. This effect may be due to the very high density of proliferated neural stem cells present. […]"}, "iPSC-derived NSCs": {"test_system": "iPSC-derived NSCs", "assay": "Differentiation of iPSC-derived NSCs, phase images and NESTIN/DCX staining", "format": "cell-based, human", "conditions": "0.1 micromolar", "from_the_text": "Human induced pluripotent stem cells were derived from human fibroblasts using the CYTOTUNE™-iPS 2.0 Sendai Reprogramming Kit (Cat. No. A16517, INVITROGEN™, a part of Thermo Fisher Scientific, Waltham Mass.) and were induced to neural stem cells (NSCs) using the xeno free version of the GIBCO™ PSC Neural Induction Medium (Cat. No. A1647801, Thermo Fisher Scientific, Waltham Mass.).\nTo differentiate the NSCs into neuronal cells, cryo-preserved iPSC-derived NSCs were recovered and NSC passage three cells were plated on a 24 well plate (Cat. No. 087721, Thermo Fisher Scientific, Waltham Mass.) coated with human laminin (Cat. No. L6274, Sigma-Aldrich, St. Louis Mo.) at a density of 1˜5×10^4 cells/cm2. The cultures were maintained in neuronal differentiation medium containing NEUROBASAL™ Medium (Cat. No. 21103, Thermo Fisher Scientific, Waltham Mass.), 2% B27 Xeno Free Supplement (Cat. No. A1486701, Thermo Fisher Scientific, Waltham Mass.), 200 micromolar ascorbic acid (Cat. No. A8960, Sigma-Aldrich, St. Louis Mo.) with or without the gamma-secretase inhibitor Compound E (0.1 micromolar, Cat. No. 565790, EMD Millipore, Billerica Mass.). Every 2-3 days, medium was replenished with respective medium.\n[…] No. 48-1200, Thermo Fisher Scientific, Waltham Mass.) and the neural stem cell marker NESTIN (Monoclonal, Cat. No. 611658, BD Biosciences, Franklin Lakes N.J.) according to the manufacturers' protocols."}, "[8]": {"test_system": "H9 human ESC-derived NSCs", "assay": "Differentiation of H9 ESC-derived NSCs, phase-contrast images and MAP2/SOX1 staining", "format": "cell-based", "conditions": "Day 14; 0.2 micromolar", "from_the_text": "as §2\nAt two weeks of NSC differentiation into neuronal cells, cells were fixed with 4% paraformaldehyde and stained with antibodies against neuronal marker MAP2 (polyclonal, Cat. No. PA5-17646, Thermo Fisher Scientific, Waltham Mass.) and neural stem cell marker SOX1 (polyclonal, Cat. No. AF3369, R&D Systems, Minneapolis Minn.) according to the manufacturers' protocols."}},
  "data": [
    {"compound": "C[C@H](NC(=O)Cc1cc(F)cc(F)c1)C(=O)N[C@H]1N=C(c2ccccc2)c2ccccc2N(C)C1=O", "note": "[YO-01027, (S,S)-2-[2-(3,5-difluorophenyl)-acetylamino]-N-(1-methyl-2-oxo-5-phenyl-2-,3-dihydro-1H-benzo[e][1,4]diazepin-3-yl)-propionamide]", "values": [
      {"measurement": "percentage of cells co-stained positive for HuC/D and negative for SOX1", "setting": "H9 ESC-derived NSCs [1]; at 0.3 micromolar", "value": 73.4, "unit": "%"}
    ]},
    {"compound": "C[C@H](NC(=O)[C@@H](O)c1cc(F)cc(F)c1)C(=O)N[C@@H]1C(=O)N(C)c2ccccc2-c2ccccc21", "note": "[LY411575, N-2((2S)-2-(3,5-difluorophenyl)-2-hydroxyethanoyl)-N1-((7S)-5-methyl-6-oxo-6,7-dihydro-5H-dibenzo[b,d]azepin-7-yl)-1-alaninamide]", "values": [
      {"measurement": "cell clumping vs control group (cell clump area, FIG. 6)", "setting": "H9 ESC-derived NSCs [2]", "value": "significant reduction in cell clumping"},
      {"measurement": "percentage of cells co-stained positive for HuC/D and negative for SOX1", "setting": "H9 ESC-derived NSCs [1]; at 0.25 micromolar", "value": 64.7, "unit": "%"}
    ]},
    {"compound": "O=C(O)CC[C@H]1CC[C@@](c2cc(F)ccc2F)(S(=O)(=O)c2ccc(Cl)cc2)CC1", "note": "[MK-0752]", "values": [
      {"measurement": "cell clumping vs control group (cell clump area, FIG. 6)", "setting": "H9 ESC-derived NSCs [2]", "value": "significant reduction in cell clumping"},
      {"measurement": "cell toxicity", "setting": "H9 ESC-derived NSCs [3]", "value": "cell toxicity"},
      {"measurement": "percentage of cells co-stained positive for HuC/D and negative for SOX1", "setting": "H9 ESC-derived NSCs [1]; at 20 micromolar", "value": 64.7, "unit": "%"}
    ]},
    {"compound": "C[C@H](NC(=O)Cc1cc(F)cc(F)c1)C(=O)N[C@H]1N=C(c2ccccc2)c2ccccc2N(C)C1=O", "note": "[Compound E, (S,S)-2-[2-(3,5-difluorophenyl)-acetylamino]-N-(1-methyl-2-oxo-5-phenyl-2-,3-dihydro-1H-benzo[e][1,4]diazepin-3-yl)-propionamide]", "values": [
      {"measurement": "reduction in cell clumping", "setting": "H9 ESC-derived NSCs [2]; Compound E 0.2 micromolar, two weeks of differentiation, cell mass >=10,000 μm2 counted as clump, vs without inhibitor", "value": 90, "unit": "%"},
      {"measurement": "cell clumping vs control group (cell clump area, FIG. 6)", "setting": "H9 ESC-derived NSCs [2]", "value": "significant reduction in cell clumping"},
      {"measurement": "GFAP positive astrocytes", "setting": "[4]", "value": "essentially eliminated"},
      {"measurement": "cell death (caspase 9 positive cells)", "setting": "H9 ESC-derived NSCs [5]", "value": "no significant amount of cell death"},
      {"measurement": "proliferation of neural stem cells (EdU positive cells)", "setting": "H9 ESC-derived NSCs [6]", "value": "substantially arrested"},
      {"measurement": "reduction in cell count vs control culture", "setting": "NSC cultures; Day 4", "value": "~2.5", "unit": "fold"},
      {"measurement": "relative fluorescence units (cell proliferation)", "setting": "NSC cultures; Day 4, control 0.93", "value": 0.36, "unit": "RFU"},
      {"measurement": "relative fluorescence units (cell proliferation)", "setting": "NSC cultures; Day 7, control 2.94", "value": 0.55, "unit": "RFU"},
      {"measurement": "increase in RFU at Day 7 compared to Day 4", "setting": "NSC cultures; Day 7 vs Day 4", "value": "~1.5", "unit": "fold"},
      {"measurement": "relative fluorescence units (cell proliferation)", "setting": "NSC cultures; Day 14, control 18.7", "value": 0.41, "unit": "RFU"},
      {"measurement": "relative fluorescence units (cell proliferation)", "setting": "NSC cultures; Day 21, control 21.5", "value": 0.30, "unit": "RFU"},
      {"measurement": "time differentiated neuronal cells can be maintained in culture", "setting": "H9 ESC-derived NSCs [7]", "value": "at least five weeks"},
      {"measurement": "percentage of cells co-stained positive for HuC/D and negative for SOX1", "setting": "H9 ESC-derived NSCs [1]; at 0.2 micromolar", "value": 74.9, "unit": "%"},
      {"measurement": "neurite outgrowth (phase-contrast)", "setting": "iPSC-derived NSCs; Day 5", "value": "extended neurite outgrowth"},
      {"measurement": "neuronal phenotype (DCX stain)", "setting": "iPSC-derived NSCs; Day 7", "value": "most of the cells present have adopted a neuronal phenotype"},
      {"measurement": "proliferation of NESTIN positive cells", "setting": "iPSC-derived NSCs; Day 7", "value": "substantially retarded"},
      {"measurement": "proliferating progenitor cells", "setting": "iPSC-derived NSCs; Day 14", "value": "fewer proliferating progenitor cells are present"},
      {"measurement": "cell clump formation (phase-contrast image)", "setting": "[8]", "value": "without formation of cell clumps"}
    ]}
  ]
}
